Experimental data from ChEMBL document CHEMBL1201862, “PubChem BioAssay data set” (2004).
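Exposure lasted 48 hours, with cells grown in 96-well plates and compounds tested at five concentrations. The concentration for 50% growth inhibition is given as GI50.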 Active and inactive are the calls of the source. Cut-off read from the data, not from the text of the source: active = GI50 up to about 1.1 µM and inactive = higher.

Columns and labels:
Assay in all cases: DTP human tumour cell line panel, 48 h
RXF 393 = test system: RXF 393
K562 = test system: K562
OVCAR-5 = test system: OVCAR-5
NCI-H460 = test system: NCI-H460
NCI-H23 = test system: NCI-H23
OVCAR-3 = test system: OVCAR-3
SR = test system: SR
DU-145 = test system: DU-145
CCRF-CEM = test system: CCRF-CEM
HT-29 = test system: HT-29
ACHN = test system: ACHN
SW-620 = test system: SW-620
OVCAR-4 = test system: OVCAR-4
MCF7 = test system: MCF7
CAKI-1 = test system: CAKI-1
MOLT-4 = test system: MOLT-4
HCC 2998 = test system: HCC 2998
UO-31 = test system: UO-31
SNB-19 = test system: SNB-19

Q: `Cc1sc2nc(-c3cc([N+](=O)[O-])c(Cl)cc3Cl)c(/C=N/NC(=N)N)n2c1C` was tested. Which GI50 (RXF 393) did it give?
A: 5.09 µM (inactive)

Q: And the GI50 (K562)?
A: 3.06 µM (inactive)

Q: And the GI50 (OVCAR-5)?
A: 32.2 µM (inactive)

Q: What about the GI50 (NCI-H460) of the same compound?
A: 6.34 µM (inactive)

Q: And the GI50 (NCI-H23)?
A: 4.08 µM (inactive)

Q: And the GI50 (OVCAR-3)?
A: 4.06 µM (inactive)

Q: And the GI50 (SR)?
A: 0.411 µM (active)

Q: And the GI50 (DU-145)?
A: 14.5 µM (inactive)

Q: What about the GI50 (CCRF-CEM) of the same compound?
A: 4.31 µM (inactive)

Q: What about the GI50 (HT-29) of the same compound?
A: 3.25 µM (inactive)

Q: And the GI50 (ACHN)?
A: 5.22 µM (inactive)

Q: And the GI50 (SW-620)?
A: 13.6 µM (inactive)

Q: What about the GI50 (OVCAR-4) of the same compound?
A: 2.36 µM (inactive)

Q: What about the GI50 (MCF7) of the same compound?
A: 2.86 µM (inactive)

Q: And the GI50 (CAKI-1)?
A: 11.9 µM (inactive)

Q: And the GI50 (MOLT-4)?
A: 1.62 µM (inactive)

Q: What about the GI50 (HCC 2998) of the same compound?
A: 2.34 µM (inactive)

Q: And the GI50 (UO-31)?
A: 11.4 µM (inactive)

Q: With `CCC(=O)Nc1ccc(NCC(=O)Nc2ccc(Cl)cc2)cc1` as the compound, how does the GI50 (RXF 393) read?
A: 16.5 µM (inactive)

Q: What about the GI50 (K562) of the same compound?
A: 24 µM (inactive)

Q: And the GI50 (OVCAR-5)?
A: 13.9 µM (inactive)

Q: And the GI50 (SNB-19)?
A: 19.8 µM (inactive)

Q: And the GI50 (NCI-H23)?
A: 18.5 µM (inactive)

Q: And the GI50 (OVCAR-3)?
A: 15.7 µM (inactive)

Q: And the GI50 (SR)?
A: 21.3 µM (inactive)

Q: What about the GI50 (DU-145) of the same compound?
A: 17.9 µM (inactive)

Q: What about the GI50 (CCRF-CEM) of the same compound?
A: 12.5 µM (inactive)

Q: What about the GI50 (HT-29) of the same compound?
A: 10.6 µM (inactive)

Q: What about the GI50 (ACHN) of the same compound?
A: 13.3 µM (inactive)

Q: And the GI50 (SW-620)?
A: 24.7 µM (inactive)

Q: What about the GI50 (OVCAR-4) of the same compound?
A: 14 µM (inactive)

Q: And the GI50 (MCF7)?
A: 14.3 µM (inactive)

Q: And the GI50 (CAKI-1)?
A: 14.3 µM (inactive)

Q: What about the GI50 (MOLT-4) of the same compound?
A: 21 µM (inactive)

Q: And the GI50 (HCC 2998)?
A: 13.2 µM (inactive)

Q: What about the GI50 (UO-31) of the same compound?
A: 22.3 µM (inactive)

Q: How did the GI50 (RXF 393) turn out when `CCC1(CC)C(=O)NN(C(=O)c2ccccc2)C1=O` was run?
A: > 100 µM (inactive)

Q: What about the GI50 (K562) of the same compound?
A: > 100 µM (inactive)

Q: And the GI50 (OVCAR-5)?
A: > 100 µM (inactive)

Q: And the GI50 (NCI-H460)?
A: > 100 µM (inactive)

Q: What about the GI50 (SNB-19) of the same compound?
A: > 100 µM (inactive)

Q: And the GI50 (NCI-H23)?
A: > 100 µM (inactive)

Q: And the GI50 (OVCAR-3)?
A: > 100 µM (inactive)

Q: What about the GI50 (SR) of the same compound?
A: > 100 µM (inactive)

Q: And the GI50 (DU-145)?
A: > 100 µM (inactive)

Q: What about the GI50 (CCRF-CEM) of the same compound?
A: 95.7 µM (inactive)

Q: And the GI50 (HT-29)?
A: > 100 µM (inactive)

Q: And the GI50 (ACHN)?
A: > 100 µM (inactive)

Q: What about the GI50 (SW-620) of the same compound?
A: > 100 µM (inactive)

Q: What about the GI50 (OVCAR-4) of the same compound?
A: > 100 µM (inactive)

Q: And the GI50 (MCF7)?
A: > 100 µM (inactive)

Q: What about the GI50 (CAKI-1) of the same compound?
A: > 100 µM (inactive)

Q: And the GI50 (MOLT-4)?
A: > 100 µM (inactive)

Q: What about the GI50 (HCC 2998) of the same compound?
A: > 100 µM (inactive)

Q: And the GI50 (UO-31)?
A: > 100 µM (inactive)

Q: Which results are given for `COP(=O)(OC)/C(=C/c1cn(C(c2ccccc2)(c2ccccc2)c2ccccc2)cn1)NC=O`?
A: GI50 (RXF 393): 16.3 µM (inactive); GI50 (K562): 84.9 µM (inactive); GI50 (OVCAR-5): 20.6 µM (inactive); GI50 (NCI-H460): 16.4 µM (inactive); GI50 (SNB-19): 35 µM (inactive); GI50 (NCI-H23): 19.5 µM (inactive); GI50 (OVCAR-3): 14.9 µM (inactive); GI50 (SR): > 100 µM (inactive); GI50 (DU-145): 21.6 µM (inactive); GI50 (CCRF-CEM): 24.8 µM (inactive); GI50 (HT-29): 16.4 µM (inactive); GI50 (ACHN): 12.1 µM (inactive); GI50 (SW-620): 26 µM (inactive); GI50 (OVCAR-4): 18.2 µM (inactive); GI50 (MCF7): 16 µM (inactive); GI50 (CAKI-1): 20.4 µM (inactive); GI50 (MOLT-4): > 100 µM (inactive); GI50 (HCC 2998): 16.7 µM (inactive); GI50 (UO-31): 12.9 µM (inactive)

Q: Which results are given for `COc1cc2oc(=O)ccc2cc1C1OC(=O)C2OC21C` (centres undefined)?
A: GI50 (RXF 393): > 100 µM (inactive); GI50 (K562): > 100 µM (inactive); GI50 (OVCAR-5): > 100 µM (inactive); GI50 (NCI-H460): > 100 µM (inactive); GI50 (SNB-19): > 100 µM (inactive); GI50 (NCI-H23): > 100 µM (inactive); GI50 (OVCAR-3): > 100 µM (inactive); GI50 (SR): > 100 µM (inactive); GI50 (DU-145): > 100 µM (inactive); GI50 (CCRF-CEM): > 100 µM (inactive); GI50 (HT-29): > 100 µM (inactive); GI50 (ACHN): > 100 µM (inactive); GI50 (SW-620): > 100 µM (inactive); GI50 (OVCAR-4): > 100 µM (inactive); GI50 (MCF7): > 100 µM (inactive); GI50 (CAKI-1): > 100 µM (inactive); GI50 (MOLT-4): > 100 µM (inactive); GI50 (HCC 2998): > 100 µM (inactive); GI50 (UO-31): 64.9 µM (inactive)

Q: Which results are given for `Nc1cccnc1NCC1(CO)CCCC1`?
A: GI50 (RXF 393): > 100 µM (inactive); GI50 (K562): > 100 µM (inactive); GI50 (OVCAR-5): > 100 µM (inactive); GI50 (NCI-H460): > 100 µM (inactive); GI50 (NCI-H23): > 100 µM (inactive); GI50 (OVCAR-3): > 100 µM (inactive); GI50 (SR): > 100 µM (inactive); GI50 (DU-145): > 100 µM (inactive); GI50 (CCRF-CEM): > 100 µM (inactive); GI50 (HT-29): > 100 µM (inactive); GI50 (ACHN): > 100 µM (inactive); GI50 (SW-620): > 100 µM (inactive); GI50 (OVCAR-4): > 100 µM (inactive); GI50 (MCF7): > 100 µM (inactive); GI50 (CAKI-1): > 100 µM (inactive); GI50 (MOLT-4): > 100 µM (inactive); GI50 (HCC 2998): > 100 µM (inactive); GI50 (UO-31): > 100 µM (inactive)

Q: For `COc1cc2c(cc1OC)C(=O)N(c1ccc(OCCN3CCCC3)cc1)C2`, which GI50 (RXF 393) is on record?
A: > 100 µM (inactive)

Q: What about the GI50 (K562) of the same compound?
A: > 100 µM (inactive)

Q: And the GI50 (OVCAR-5)?
A: > 100 µM (inactive)

Q: And the GI50 (NCI-H460)?
A: > 100 µM (inactive)

Q: What about the GI50 (SNB-19) of the same compound?
A: > 100 µM (inactive)

Q: And the GI50 (NCI-H23)?
A: > 100 µM (inactive)

Q: What about the GI50 (OVCAR-3) of the same compound?
A: > 100 µM (inactive)

Q: What about the GI50 (SR) of the same compound?
A: > 100 µM (inactive)

Q: And the GI50 (DU-145)?
A: > 100 µM (inactive)

Q: And the GI50 (CCRF-CEM)?
A: > 100 µM (inactive)

Q: What about the GI50 (HT-29) of the same compound?
A: > 100 µM (inactive)

Q: What about the GI50 (ACHN) of the same compound?
A: > 100 µM (inactive)

Q: And the GI50 (SW-620)?
A: > 100 µM (inactive)

Q: And the GI50 (OVCAR-4)?
A: > 100 µM (inactive)

Q: And the GI50 (MCF7)?
A: > 100 µM (inactive)

Q: What about the GI50 (CAKI-1) of the same compound?
A: > 100 µM (inactive)

Q: What about the GI50 (MOLT-4) of the same compound?
A: > 100 µM (inactive)

Q: What about the GI50 (HCC 2998) of the same compound?
A: > 100 µM (inactive)
